Common to all, as to format: in vivo, pig
The test system of one assay is IL-10. Put plainly: Cytokine gene expression after ex-vivo LPS tissue challenge of ileum and colon, Example 5. The settings on record: ileum, ex-vivo LPS challenge (10 μg/ml, 90 minutes). An excerpt: (§1) 21 pigs with an initial weight of 17.9±2.2 Kg were assigned to one of the 3 dietary treatments: (T1) control; (T2) basal diet+300 ppm LAM; (T3) basal diet+600 ppm LAM. Experimental feeding continued for 21 days ad libitum. Diets were formulated to have similar digestible energy (DE) (14.4 MJ/Kg) and ileal digestible lysine (12.5 g/Kg).
(§2) Ileal and colonic tissues were sampled from the same location as described for digesta samples. Excised tissues were emptied by dissecting them along the mesentery and rinsing them using sterile phosphate buffered saline (PBS) (Oxoid). Tissue sections 1 cm^3, which had been stripped of the overlying smooth muscle were cut from each tissue. Two sections from each tissue were placed in 1 ml of Dulbecco's Modified Eagle's Medium (DMEM) (Gibco), one in the presence of bacterial lipopolysaccharide (LPS) (Sigma Aldrich) at a concentration of 10 μg/ml. The other tissue sample was used as a control and incubated in sterile DMEM in the absence of LPS. Both challenged and unchallenged tissues were incubated at 37° C. for 90 minutes before being removed, blotted dry and weighed. Approximately 1-2 g of porcine ileum and colon tissues were cut into small pieces and collected in 15 ml of RNAlater® (Applied Biosystems, Foster City, Calif.). RNAlater® was removed before storing the samples at −80° C. until used for RNA extraction.
(§3) Tissue samples for RNA extraction were removed from −86° C. and homogenised. 500 μl of lysis solution/2-ME was added to each sample and these were mechanically disrupted using one 5 mm stainless steel bead per sample. These were then placed in a Tissue Lyser (Qiagen) and lysates were homogenised for 3 mins and transferred to a GenElute Filtration Column (Sigma Aldrich) and RNA was extracted. 1 µg of total RNA was used for cDNA synthesis using oligo(dT)20 primer in a final reaction volume of 20 μl with Superscript™ III First-Strand synthesis system for reverse transcriptase-polymerase chain reaction (RT-PCR) (Invitrogen Life Technologies, Carlsbad, Calif.). At the last step of cDNA synthesis, treatment with E. coli RNase H (Invitrogen Corp.) was performed to digest the remaining RNA/mRNA template, resulting in the production of the single-stranded cDNA template for subsequent qRT-PCR reactions.
(§4) All porcine primers for the cytokine genes interferon gamma (IFN-γ), interleukin-1α (IL-1α), IL-6, IL-8, IL-10, IL-17, tumour necrosis factor (TNF-α), the mucin genes (MUCs 1, 2, 4, 5AC, 12, 13 and 20) and three reference genes, β-actin (ACTB), Glyceraldehyde-3-phosphate dehydrogenase (GAPDH) and Peptidylprolyl isomerase A (PPIA), were designed using Primer Express™ (PE Applied Biosystems, Foster City, Calif.) and synthesised by MWG Biotech (Milton Keynes, UK). These reference genes were previously validated for use in porcine tissue and qPCR was then carried out on the cDNA using the ABI PRISM 7900HT Fast sequence detection system for 96-well plates (Applied Biosystems, Foster City, Calif.). All samples were prepared in duplicate using SYBR Green Fast PCR Master Mix (Applied Biosystems, Foster City, Calif.), cDNA as template and specific primers for the genes selected. For each reaction 5 μl cDNA, 1.2 μl (forward and reverse primer mix, 5 μM), 10 μl Fast SYBR Green PCR Master Mix (PE Applied Biosystems, Foster City, Calif.) was added and made up to a final volume of 20 μl. The two step PCR program was as follows: 95° C. for 10 minutes for 1 cycle followed by 95° C. for 15 seconds and 60° C. for 1 minute for 40 cycles. The raw Ct values for the reference genes were converted to relative quantities using the formula Q=E ^ΔCt where E is the PCR efficiency of the assay and ^ΔCt is the value calculated for the difference between the lowest Ct value for each gene minus the Ct value of the sample in question. The relative quantities of the endogenous controls were then analysed for stability in geNorm (Vandesompele et al., 2002). […]

The next assay relates to IL-8. The description is as above.
From the text: as §1, §2, §3, §4

The test system of a further assay is IFN-γ. The assay is described as above. The settings on record: ileum, ex-vivo LPS challenge (10 μg/ml, 90 minutes).
From the text: as §1, §2, §3, §4

The test system of a further assay is IL-17. Described as above. The conditions noted are these: ileum, ex-vivo LPS challenge (10 μg/ml, 90 minutes).
From the text: as §1, §2, §3, §4

For another assay, the system named is IL-1α. The assay is described as above. The settings on record: ileum, ex-vivo LPS challenge (10 μg/ml, 90 minutes).
From the text: as §1, §2, §3, §4

A further assay concerns TNF-α. Described as above. The settings on record: ileum, ex-vivo LPS challenge (10 μg/ml, 90 minutes).
From the text: as §1, §2, §3, §4

The subject of the next assay is IL-6. The assay is described as above.
From the text: as §1, §2, §3, §4

The nature of assay [1]: Faecal pH, dry matter and faeces (diarrhoea) scoring, Example 4. An excerpt: One hundred and ninety two piglets were weaned at twenty four days of age, with an initial live weight of 6.4±0.785 Kg and assigned to one of four dietary treatments or 21 days post weaning. The dietary treatments consisted of (T1) basal diet, (T2) basal diet with 300 ppm LAM, (T3) basal diet with 236 ppm FUC, (T4) Basal diet with 300 ppm LAM and 236 ppm FUC. Diets were formulated to have identical concentrations of digestible energy (DE) (16 MJ/Kg) and ileal digestible lysine (14 g/Kg). All amino acid requirements were met relative to lysine (Close, 1994). Chromium III oxide was added to the diets for determination of nutrient digestibility. The LAM and FUC were derived from Laminaria hyperborea.
Piglets were housed in groups of 4 and offered feed twice daily. Water was supplied ad-libitum. Any pig displaying symptoms of illness was treated appropriately and recorded. Pigs were weighed on day 0 (day of weaning), 7, 14 and 21. Feed intake was monitored weekly. Fresh faecal samples were taken on day 10 and were analysed for E. coli and Lactobacilli concentrations. Faeces samples were collected from each pen on day 12-17 and were retained for chemical analysis. Fresh faecal samples were removed on day 14 and were frozen and retained for volatile fatty acid analysis. Fresh faecal samples were taken on day 17 for pH determination.
A scoring system was applied to indicate its presence and severity. The following scoring system was used: 1=hard, 2=slightly soft, 3=soft, partially formed, 4=loose, semi-liquid and 5=watery, mucous-like.

The nature of assay [2]: Animal performance and nutrient digestibility, Example 5. The conditions noted are these: increasing LAM 0, 300, 600 ppm, 21 days.
From the text: as §1

The mark [3] stands for this setting: ileum, ex-vivo LPS challenge (10 μg/ml, 90 minutes).

On to laminarin, for which the IL-10 gene expression entry with IL-10 is listed as “no effect”. Also, the IL-8 gene expression entry with IL-8 (colon, LPS-challenged tissue, increasing LAM) is “linear increase”; in the assay on IL-8 (setting [3]), “no effect”. The IFN-γ gene expression entry with IFN-γ is given as “no effect”. Besides, the IL-17 gene expression result in the assay on IL-17 is recorded as “no effect”. In the assay on IL-1α, the IL-1α gene expression entry is “no effect”. The TNF-α gene expression entry with TNF-α is “no effect”. Besides, in the assay on IL-6 (colon, LPS-challenged tissue, LAM 300 ppm), the IL-6 expression result is given as “increase”. Also, the IL-6 gene expression result in the assay on IL-6 (setting [3]) is on record as “no effect”. Also, the “faecal DM content” value in assay [1] (LAM supplemented diets (300 ppm) v unsupplemented (26.24), in % (unit assumed)) was determined as 28.64. Besides, the faecal score result in assay [1] (days 0-21, compared to the basal diet) is listed as “no effect”; in [1] (days 7-14, scale 1 (hard) to 5 (watery), LAM supplemented diets v 2.57), 2.05. Moreover, the “nutrient digestibility coefficients (DM, OM, ash, N or GE)” value in [2] is “no effect”. Further, the “performance (food intake, daily gain or food conversion ratio)” value in assay [2] is “no effect”.

These data come from patent publication US9241951B2, “Of gastrointestinal health, immunity and performance by dietary intervention” (BIOATLANTIS LTD, priority 2009, dated 2016).
